Patent US10538498B2, “1,3,4-oxadiazole sulfonamide derivative compounds as histone deacetylase 6 inhibitor, and the pharmaceutical composition comprising the same” (Chong Kun Dang Pharmaceutical Corp., priority 2015, dated 2020)
pIC50: −log10 of the molar value.

Molecular target: T1, human recombinant HDAC6 (Homo sapiens, UniProt Q9UBN7)
T1 construct: purchased Calbiochem 382180
T1 sequence (Q9UBN7 1-1215): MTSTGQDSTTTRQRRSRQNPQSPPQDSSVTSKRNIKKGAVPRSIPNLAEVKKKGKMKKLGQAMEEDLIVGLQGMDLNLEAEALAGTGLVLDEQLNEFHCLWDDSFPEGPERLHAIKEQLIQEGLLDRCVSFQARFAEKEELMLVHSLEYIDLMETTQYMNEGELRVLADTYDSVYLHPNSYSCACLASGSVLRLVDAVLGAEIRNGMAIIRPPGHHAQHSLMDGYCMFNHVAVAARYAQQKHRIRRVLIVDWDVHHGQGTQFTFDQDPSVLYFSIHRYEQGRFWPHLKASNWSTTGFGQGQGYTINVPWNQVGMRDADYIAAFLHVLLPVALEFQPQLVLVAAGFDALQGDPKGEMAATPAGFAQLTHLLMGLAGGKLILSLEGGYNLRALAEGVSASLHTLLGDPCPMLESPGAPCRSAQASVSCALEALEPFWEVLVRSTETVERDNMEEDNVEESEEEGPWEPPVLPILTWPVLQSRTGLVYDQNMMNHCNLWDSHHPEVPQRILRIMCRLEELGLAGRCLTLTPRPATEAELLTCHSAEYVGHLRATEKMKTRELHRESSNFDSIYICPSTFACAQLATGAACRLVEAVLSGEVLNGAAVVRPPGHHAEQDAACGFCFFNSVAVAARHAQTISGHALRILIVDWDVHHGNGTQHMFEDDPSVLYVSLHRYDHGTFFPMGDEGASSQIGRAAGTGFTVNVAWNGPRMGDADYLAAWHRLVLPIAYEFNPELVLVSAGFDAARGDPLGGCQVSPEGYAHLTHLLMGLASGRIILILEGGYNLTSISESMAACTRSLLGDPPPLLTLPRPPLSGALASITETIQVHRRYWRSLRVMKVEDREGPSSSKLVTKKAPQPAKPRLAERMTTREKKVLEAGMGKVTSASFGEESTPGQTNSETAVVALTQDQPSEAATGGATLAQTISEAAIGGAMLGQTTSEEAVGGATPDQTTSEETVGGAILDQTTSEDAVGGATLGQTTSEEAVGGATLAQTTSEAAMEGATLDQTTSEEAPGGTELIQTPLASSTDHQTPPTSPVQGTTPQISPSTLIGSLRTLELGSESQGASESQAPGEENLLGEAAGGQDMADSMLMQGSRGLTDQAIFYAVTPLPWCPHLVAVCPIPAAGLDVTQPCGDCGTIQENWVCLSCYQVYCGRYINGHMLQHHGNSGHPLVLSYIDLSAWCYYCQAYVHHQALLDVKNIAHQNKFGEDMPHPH
Test: HDAC6 enzyme activity inhibition assay (HDAC Fluorimetric Drug Discovery Kit)
Assay type: biochemical
Conditions: for HDAC6 selectivity (fold): HDAC1 vs HDAC6; for pIC50: same protocol as the HDAC1 enzyme activity test
Outline: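 Recombinant enzyme (0.3 μg) was incubated with 5-fold serially diluted compound and 10 μM Fluor de Lys-SIRT1 substrate for 60 min at 30° C. Developer II was then added for 30 min, fluorescence read at Ex 360/Em 460, and IC50 values were calculated.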

| Compound | HDAC6 selectivity (fold) | pIC50 |
| --- | --- | --- |
| CS(=O)(=O)N(Cc1ccc(-c2nnc(C(F)(F)F)o2)cn1)c1cccc(C(F)(F)F)c1 [Compound 11323, N-((5-(5-(trifluoromethyl)-1,3,4-oxadiazol-2-yl)pyridin-2-yl)methyl)-N-(3-(trifluoromethyl)phenyl)methanesulfonamide] | 909 fold | 6.96 |
| CS(=O)(=O)N(Cc1ccc(-c2nnc(C(F)F)o2)cn1)c1cccc(C(F)(F)F)c1 [Compound 11324, N-((5-(5-(difluoromethyl)-1,3,4-oxadiazol-2-yl)pyridin-2-yl)methyl)-N-(3-(trifluoromethyl)phenyl)methanesulfonamide] | 4762 fold | 7.68 |
| CC(C)(C)OC(=O)N1CCC(N(Cc2ccc(-c3nnc(C(F)F)o3)cc2F)S(C)(=O)=O)CC1 [Compound 11338, tert-butyl 4-(N-(4-(5-(difluoromethyl)-1,3,4-oxadiazol-2-yl)-2-fluorobenzyl)methylsulfonamido)piperidine-1-carboxylate] | 195 fold | 6.29 |
| CS(=O)(=O)N(Cc1ccc(-c2nnc(C(F)F)o2)cn1)c1ccc2c(c1)OCO2 [Compound 11345, N-(benzo[d][1,3]dioxol-5-yl)-N-((5-(5-(difluoromethyl)-1,3,4-oxadiazol-2-yl)pyridin-2-yl)methyl)methanesulfonamide] | 3571 fold | 7.55 |
| COc1ccc(N(Cc2ccc(-c3nnc(C(F)F)o3)cn2)S(C)(=O)=O)cc1 [Compound 11346, N-((5-(5-(difluoromethyl)-1,3,4-oxadiazol-2-yl)pyridin-2-yl)methyl)-N-(4-methoxyphenyl)methanesulfonamide] | 4348 fold | 7.64 |
| CS(=O)(=O)N(Cc1ccc(-c2nnc(C(F)F)o2)cc1)c1ccc(Br)cn1 [Compound 11347, N-(5-bromopyridin-2-yl)-N-(4-(5-(difluoromethyl)-1,3,4-oxadiazol-2-yl)benzyl)methanesulfonamide] | 971 fold | 6.99 |
| CS(=O)(=O)N(Cc1ccc(-c2nnc(C(F)F)o2)cc1)c1ccc(Cl)cn1 [Compound 11348] | 758 fold | 6.88 |
| O=S1(=O)CCC(S(=O)(=O)N(Cc2ccc(-c3nnc(C(F)F)o3)cn2)c2ccccc2)CC1 [Compound 11350, N-((5-(5-(difluoromethyl)-1,3,4-oxadiazol-2-yl)pyridin-2-yl)methyl)-N-phenyltetrahydro-2H-thiopyran-4-sulfonamide 1,1-dioxide] | 10000 fold | 8.00 |
| CS(=O)(=O)N(Cc1ccc(-c2nnc(C(F)F)o2)cn1)C1CCCCC1 [Compound 11351, N-cyclohexyl-N-((5-(5-(difluoromethyl)-1,3,4-oxadiazol-2-yl)pyridin-2-yl)methyl)methanesulfonamide] | 1449 fold | 7.16 |
| CS(=O)(=O)N(Cc1ccc(-c2nnc(C(F)F)o2)cn1)c1cccc(Cl)c1 [Compound 11352, N-(3-chlorophenyl)-N-((5-(5-(difluoromethyl)-1,3,4-oxadiazol-2-yl)pyridin-2-yl)methyl)methanesulfonamide] | 12500 fold | 8.10 |
| CS(=O)(=O)N(Cc1ccc(-c2nnc(C(F)F)o2)cn1)c1cccnc1 [Compound 11353, N-((5-(5-(difluoromethyl)-1,3,4-oxadiazol-2-yl)pyridin-2-yl)methyl)-N-(pyridin-3-yl)methanesulfonamide] | 3846 fold | 7.59 |
| CS(=O)(=O)N(Cc1ccc(-c2nnc(C(F)F)o2)cn1)c1cccc(Br)c1 [Compound 11354, N-(3-bromophenyl)-N-((5-(5-(difluoromethyl)-1,3,4-oxadiazol-2-yl)pyridin-2-yl)methyl)methanesulfonamide] | 12500 fold | 8.10 |
| Cc1cccc(N(Cc2ccc(-c3nnc(C(F)F)o3)cn2)S(C)(=O)=O)c1 [Compound 11355, N-((5-(5-(difluoromethyl)-1,3,4-oxadiazol-2-yl)pyridin-2-yl)methyl)-N-(m-tolyl)methanesulfonamide] | 6250 fold | 7.80 |
| CCS(=O)(=O)N(Cc1ccc(-c2nnc(C(F)F)o2)cn1)c1cccc(Br)c1 [Compound 11366, N-(3-bromophenyl)-N-((5-(5-(difluoromethyl)-1,3,4-oxadiazol-2-yl)pyridin-2-yl)methyl)ethanesulfonamide] | 9091 fold | 7.96 |
| CN1CCC(S(=O)(=O)N(Cc2ccc(-c3nnc(C(F)F)o3)cn2)c2ccccc2)CC1 [Compound 11367, N-((5-(5-(difluoromethyl)-1,3,4-oxadiazol-2-yl)pyridin-2-yl)methyl)-1-methyl-N-phenylpiperidine-4-sulfonamide] | 6250 fold | 7.80 |
| CCN1CCC(S(=O)(=O)N(Cc2ccc(-c3nnc(C(F)F)o3)cn2)c2ccccc2)CC1 [Compound 11368, N-((5-(5-(difluoromethyl)-1,3,4-oxadiazol-2-yl)pyridin-2-yl)methyl)-1-ethyl-N-phenylpiperidine-4-sulfonamide] | 6667 fold | 7.82 |
| CN1CCC(S(=O)(=O)N(Cc2ccc(-c3nnc(C(F)F)o3)cc2F)c2ccccc2)CC1 [Compound 11372, N-(4-(5-(difluoromethyl)-1,3,4-oxadiazol-2-yl)-2-fluorobenzyl)-1-methyl-N-phenylpiperidine-4-sulfonamide] | 11111 fold | 8.05 |
| CCN1CCC(S(=O)(=O)N(Cc2ccc(-c3nnc(C(F)F)o3)cc2F)c2ccccc2)CC1 [Compound 11373, N-(4-(5-(difluoromethyl)-1,3,4-oxadiazol-2-yl)-2-fluorobenzyl)-1-ethyl-N-phenylpiperidine-4-sulfonamide] | 10000 fold | 8.00 |
| CC(C)(O)CN1CCC(S(=O)(=O)N(Cc2ccc(-c3nnc(C(F)F)o3)cc2F)c2ccccc2)CC1 [Compound 11377, N-(4-(5-(difluoromethyl)-1,3,4-oxadiazol-2-yl)-2-fluorobenzyl)-1-(2-hydroxy-2-methylpropyl)-N-phenylpiperidine-4-sulfonamide] | 4545 fold | 7.66 |
| CCS(=O)(=O)N(Cc1ccc(-c2nnc(C(F)F)o2)cn1)c1ccc(CN2CCN(C(C)=O)CC2)cc1 [Compound 11386, N-(4-((4-acetylpiperazin-1-yl)methyl)phenyl)-N-((5-(5-(difluoromethyl)-1,3,4-oxadiazol-2-yl)pyridin-2-yl)methyl)ethanesulfonamide] | 1316 fold | 7.12 |
| CCS(=O)(=O)N(Cc1ccc(-c2nnc(C(F)F)o2)cn1)c1ccc(CN2CCN(S(C)(=O)=O)CC2)cc1 [Compound 11387, N-((5-(5-(difluoromethyl)-1,3,4-oxadiazol-2-yl)pyridin-2-yl)methyl)-N-(4-((4-(methylsulfonyl)piperazin-1-yl)methyl)phenyl)ethanesulfonamide] | 1087 fold | 7.04 |
| CCS(=O)(=O)N(Cc1ccc(-c2nnc(C(F)F)o2)cn1)c1cccc(CN2CCN(C(C)=O)CC2)c1 [Compound 11388, N-(3-((4-acetylpiperazin-1-yl)methyl)phenyl)-N-((5-(5-(difluoromethyl)-1,3,4-oxadiazol-2-yl)pyridin-2-yl)methyl)ethanesulfonamide] | 1333 fold | 7.12 |
| CS(=O)(=O)N(Cc1ccc(-c2noc(C(F)(F)F)n2)cc1)Cc1ccc(-c2nnc(C(F)F)o2)cc1F [Compound 11389, N-(4-(5-(difluoromethyl)-1,3,4-oxadiazol-2-yl)-2-fluorobenzyl)-N-(4-(5-(trifluoromethyl)-1,2,4-oxadiazol-3-yl)benzyl)methanesulfonamide] | 104 fold | 6.02 |
| O=S(=O)(C1CCOCC1)N(Cc1ccc(-c2nnc(C(F)F)o2)cn1)c1ccccc1 [Compound 11390, N-((5-(5-(difluoromethyl)-1,3,4-oxadiazol-2-yl)pyridin-2-yl)methyl)-N-phenyltetrahydro-2H-pyran-4-sulfonamide] | 7692 fold | 7.89 |
